Results published in PubChem BioAssay (NCI).
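Step 1: Grow cells in 96-well plates. Step 2: Expose to compound for 48 hours at 5 concentrations. Step 3: Interpolate endpoints linearly; if unreached, use highest concentration. TGI: total growth inhibition.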

Key:
Assay in all cases: growth of human tumour cells (NCI), 48 h
[1] = system: SR leukemia
[2] = system: SNB-75 CNS
[3] = system: NCI-H23 lung
[4] = system: OVCAR-4 ovarian
[5] = system: COLO 205 colon
[6] = system: KM12 colon
[7] = system: SK-MEL-2 melanoma
[8] = system: HOP-18 NSCLC
[9] = system: SF-295 CNS
[10] = system: HCT-15 colon
[11] = system: UACC-257 melanoma
[12] = system: OVCAR-8 ovarian
[13] = system: HT29 colon
[14] = system: SF-268 CNS
[15] = system: HL-60(TB) leukemia
[16] = system: OVCAR-5 ovarian
[17] = system: NCI-H460 lung
[18] = system: DMS 273 small cell lung
[19] = system: 786-0 renal
[20] = system: CCRF-CEM leukemia
[21] = system: TK-10 renal
[22] = system: SNB-78 CNS
[23] = system: DMS 114 small cell lung
[24] = system: A549 NSCLC
[25] = system: SK-MEL-28 melanoma
[26] = system: LXFL 529 NSCLC
[27] = system: M19-MEL melanoma
[28] = system: HOP-92 NSCLC
[29] = system: SK-OV-3 ovarian
[30] = system: M14 melanoma
[31] = system: RXF 393 renal
[32] = system: SK-MEL-5 melanoma
[33] = system: ACHN renal
[34] = system: HOP-62 NSCLC
[35] = system: EKVX NSCLC
[36] = system: RXF-631 renal
[37] = system: KM20L2 colon
[38] = system: IGROV1 ovarian
[39] = system: MALME-3M melanoma
[40] = system: OVCAR-3 ovarian
[41] = system: HCT-116 colon
[42] = system: RPMI-8226 leukemia
[43] = system: NCI-H226 lung
[44] = system: MOLT-4 leukemia
[45] = system: LOX IMVI melanoma
[46] = system: UACC-62 melanoma
[47] = system: U251 CNS
[48] = system: NCI-H522 lung
[49] = system: K-562 leukemia
[50] = system: SW-620 colon
[51] = system: CAKI-1 renal
[52] = system: SNB-19 CNS
[53] = system: HCC-2998 colon
[54] = system: A498 renal
[55] = system: DLD-1 colon
[56] = system: UO-31 renal
[57] = system: SF-539 CNS
[58] = system: XF 498 CNS
[59] = system: SN12C renal

Q: How did the TGI [1] turn out when CC(=O)O[C@H]1CC[C@@]2(C)C(CC[C@]3(C)C2CC[C@]2(C)Oc4c(C)cc(O)cc4C[C@@H]23)C1(C)C (stereo partly drawn) was run?
A: 7.12 µM

Q: And the TGI [2]?
A: 8.12 µM

Q: And the TGI [3]?
A: 21.6 µM

Q: What about the TGI [4] of the same compound?
A: 22.2 µM

Q: What about the TGI [5] of the same compound?
A: 29.7 µM

Q: And the TGI [6]?
A: 22.6 µM

Q: And the TGI [7]?
A: 21.4 µM

Q: And the TGI [8]?
A: 26.4 µM

Q: What about the TGI [9] of the same compound?
A: 5.09 µM

Q: What about the TGI [10] of the same compound?
A: 14.9 µM

Q: What about the TGI [11] of the same compound?
A: 22.8 µM

Q: What about the TGI [12] of the same compound?
A: 23.8 µM

Q: What about the TGI [13] of the same compound?
A: 23.9 µM

Q: And the TGI [14]?
A: 21.4 µM

Q: What about the TGI [15] of the same compound?
A: 14.7 µM

Q: And the TGI [16]?
A: 23.6 µM

Q: What about the TGI [17] of the same compound?
A: 16.5 µM

Q: And the TGI [18]?
A: 12.7 µM

Q: And the TGI [19]?
A: 4.44 µM

Q: And the TGI [20]?
A: 16.8 µM

Q: What about the TGI [21] of the same compound?
A: 29.3 µM

Q: And the TGI [22]?
A: 21.8 µM

Q: And the TGI [23]?
A: 26.7 µM

Q: And the TGI [24]?
A: 21.2 µM

Q: And the TGI [25]?
A: 22.9 µM

Q: What about the TGI [26] of the same compound?
A: 13.6 µM

Q: And the TGI [27]?
A: 25.8 µM

Q: And the TGI [28]?
A: 18.2 µM

Q: What about the TGI [29] of the same compound?
A: 22.2 µM

Q: And the TGI [30]?
A: 27.5 µM

Q: And the TGI [31]?
A: 7.09 µM

Q: And the TGI [32]?
A: 18.4 µM

Q: What about the TGI [33] of the same compound?
A: 17.5 µM

Q: And the TGI [34]?
A: 30.6 µM

Q: And the TGI [35]?
A: 46.9 µM

Q: What about the TGI [36] of the same compound?
A: 19.4 µM

Q: What about the TGI [37] of the same compound?
A: 19.2 µM

Q: What about the TGI [38] of the same compound?
A: 30 µM

Q: And the TGI [39]?
A: 22.8 µM

Q: What about the TGI [40] of the same compound?
A: 25.7 µM

Q: And the TGI [41]?
A: 18.1 µM

Q: And the TGI [42]?
A: 6.96 µM

Q: And the TGI [43]?
A: 35.3 µM

Q: What about the TGI [44] of the same compound?
A: 9.75 µM

Q: And the TGI [45]?
A: 23.8 µM

Q: And the TGI [46]?
A: 23.7 µM

Q: What about the TGI [47] of the same compound?
A: 7.96 µM

Q: What about the TGI [48] of the same compound?
A: 21.5 µM

Q: What about the TGI [49] of the same compound?
A: 29.3 µM

Q: What about the TGI [50] of the same compound?
A: 5.71 µM

Q: And the TGI [51]?
A: 21.8 µM

Q: And the TGI [52]?
A: 14.4 µM

Q: What about the TGI [53] of the same compound?
A: 22.2 µM

Q: And the TGI [54]?
A: 26 µM

Q: And the TGI [55]?
A: 27.1 µM

Q: What about the TGI [56] of the same compound?
A: 14.3 µM

Q: Cn1ccnc1C(c1nccn1C)C(C)(C)[N+](=O)[O-] was tested. Which TGI [1] did it give?
A: > 100 µM

Q: What about the TGI [2] of the same compound?
A: > 100 µM

Q: And the TGI [4]?
A: > 100 µM

Q: What about the TGI [5] of the same compound?
A: > 100 µM

Q: What about the TGI [6] of the same compound?
A: > 100 µM

Q: What about the TGI [7] of the same compound?
A: > 100 µM

Q: And the TGI [57]?
A: > 100 µM

Q: What about the TGI [9] of the same compound?
A: > 100 µM

Q: What about the TGI [10] of the same compound?
A: > 100 µM

Q: What about the TGI [11] of the same compound?
A: > 100 µM

Q: And the TGI [12]?
A: > 100 µM

Q: What about the TGI [14] of the same compound?
A: > 100 µM

Q: What about the TGI [15] of the same compound?
A: > 100 µM

Q: And the TGI [17]?
A: > 100 µM

Q: What about the TGI [18] of the same compound?
A: > 100 µM

Q: And the TGI [19]?
A: > 100 µM

Q: What about the TGI [20] of the same compound?
A: > 100 µM

Q: And the TGI [21]?
A: > 100 µM

Q: And the TGI [22]?
A: > 100 µM

Q: What about the TGI [23] of the same compound?
A: > 100 µM

Q: And the TGI [24]?
A: > 100 µM

Q: What about the TGI [25] of the same compound?
A: > 100 µM

Q: What about the TGI [27] of the same compound?
A: > 100 µM

Q: What about the TGI [28] of the same compound?
A: > 100 µM

Q: What about the TGI [29] of the same compound?
A: > 100 µM

Q: What about the TGI [30] of the same compound?
A: > 100 µM

Q: And the TGI [31]?
A: > 100 µM

Q: And the TGI [32]?
A: > 100 µM

Q: What about the TGI [33] of the same compound?
A: > 100 µM

Q: And the TGI [34]?
A: > 100 µM

Q: And the TGI [35]?
A: > 100 µM

Q: And the TGI [36]?
A: > 100 µM

Q: What about the TGI [58] of the same compound?
A: > 100 µM

Q: What about the TGI [40] of the same compound?
A: > 100 µM

Q: What about the TGI [41] of the same compound?
A: > 100 µM

Q: And the TGI [42]?
A: > 100 µM

Q: And the TGI [59]?
A: > 100 µM

Q: And the TGI [44]?
A: > 100 µM

Q: What about the TGI [45] of the same compound?
A: > 100 µM

Q: And the TGI [46]?
A: 56.6 µM

Q: And the TGI [47]?
A: > 100 µM

Q: What about the TGI [48] of the same compound?
A: > 100 µM

Q: What about the TGI [49] of the same compound?
A: > 100 µM

Q: What about the TGI [50] of the same compound?
A: > 100 µM

Q: What about the TGI [51] of the same compound?
A: > 100 µM

Q: And the TGI [53]?
A: > 100 µM

Q: And the TGI [54]?
A: > 100 µM

Q: And the TGI [55]?
A: > 100 µM

Q: How did the TGI [1] turn out when CS(=O)(=O)OCCN1CCN(C(=O)c2cccc3c(Nc4ccc(S(N)(=O)=O)cc4)c4ccccc4nc23)CC1 was run?
A: > 100 µM

Q: And the TGI [2]?
A: > 100 µM

Q: What about the TGI [3] of the same compound?
A: > 100 µM

Q: What about the TGI [4] of the same compound?
A: > 100 µM

Q: And the TGI [5]?
A: > 82.8 µM

Q: And the TGI [6]?
A: > 100 µM

Q: What about the TGI [7] of the same compound?
A: > 100 µM

Q: What about the TGI [57] of the same compound?
A: > 100 µM

Q: And the TGI [8]?
A: > 100 µM

Q: And the TGI [9]?
A: > 100 µM

Q: What about the TGI [10] of the same compound?
A: > 60.6 µM

Q: What about the TGI [11] of the same compound?
A: > 100 µM

Q: What about the TGI [12] of the same compound?
A: > 100 µM

Q: And the TGI [13]?
A: > 100 µM

Q: And the TGI [14]?
A: > 100 µM

Q: What about the TGI [15] of the same compound?
A: > 100 µM

Q: What about the TGI [16] of the same compound?
A: > 100 µM

Q: What about the TGI [17] of the same compound?
A: > 100 µM

Q: And the TGI [18]?
A: > 100 µM

Q: And the TGI [19]?
A: > 100 µM

Q: What about the TGI [20] of the same compound?
A: > 63 µM

Q: And the TGI [21]?
A: > 100 µM

Q: And the TGI [22]?
A: > 100 µM

Q: And the TGI [23]?
A: > 57.6 µM

Q: What about the TGI [24] of the same compound?
A: > 100 µM

Q: What about the TGI [25] of the same compound?
A: > 100 µM

Q: What about the TGI [26] of the same compound?
A: > 100 µM

Q: And the TGI [27]?
A: > 100 µM

Q: What about the TGI [28] of the same compound?
A: > 100 µM

Q: What about the TGI [29] of the same compound?
A: > 100 µM

Q: And the TGI [30]?
A: > 100 µM

Q: What about the TGI [31] of the same compound?
A: > 100 µM

Q: What about the TGI [32] of the same compound?
A: > 100 µM

Q: What about the TGI [33] of the same compound?
A: > 100 µM

Q: And the TGI [34]?
A: > 100 µM

Q: And the TGI [35]?
A: > 100 µM

Q: And the TGI [36]?
A: > 100 µM

Q: What about the TGI [37] of the same compound?
A: > 100 µM

Q: And the TGI [38]?
A: > 100 µM

Q: What about the TGI [58] of the same compound?
A: > 100 µM

Q: And the TGI [39]?
A: > 100 µM

Q: What about the TGI [40] of the same compound?
A: > 100 µM

Q: And the TGI [41]?
A: > 57.7 µM

Q: What about the TGI [42] of the same compound?
A: > 66.1 µM

Q: And the TGI [43]?
A: > 100 µM

Q: And the TGI [59]?
A: > 100 µM

Q: And the TGI [44]?
A: > 100 µM

Q: And the TGI [45]?
A: > 59.1 µM

Q: And the TGI [46]?
A: > 100 µM

Q: What about the TGI [47] of the same compound?
A: > 100 µM

Q: What about the TGI [48] of the same compound?
A: > 100 µM

Q: What about the TGI [49] of the same compound?
A: > 81.1 µM

Q: And the TGI [50]?
A: > 55.8 µM

Q: And the TGI [51]?
A: > 100 µM

Q: And the TGI [52]?
A: > 72.6 µM

Q: What about the TGI [53] of the same compound?
A: > 100 µM

Q: What about the TGI [54] of the same compound?
A: > 100 µM

Q: And the TGI [55]?
A: > 65.3 µM

Q: What about the TGI [56] of the same compound?
A: > 100 µM
